Reference: CN101993370A, “蓝萼甲素酸酯衍生物及其制备方法和应用” (SHANGHAI JINHAO PHARMACEUTICAL DEVELOPMENT Co Ltd, priority 2009, dated 2011)

Experiments:
[1] = tested on: lung cancer A549 tumor cells [肺癌A549肿瘤细胞]; test: MTT assay, A549 lung cancer tumor cells (Example 33); type: cell-based; details: 48 h, positive control
[2] = in vivo and in vitro; cited from earlier work
[3] = tested on: HCA ascites type [HCA腹水型]; details: mice bearing HCA ascites type; cited from earlier work
[4] = cited from earlier work
[5] = tested on: 5180 solid type [5180实体型]; details: cited from earlier work
HCA solid type [HCA实体型] = details: cited from earlier work
[6] = cited from earlier work; remark: listed apart in the source
[7] = tested on: 5180 ascites type [5180腹水型]; details: mice bearing 5180 ascites type; cited from earlier work
[8] = in vivo; cited from earlier work
[9] = cited from earlier work; remark: listed apart in the source
[10] = tested on: Lewis lung cancer [Lewis肺癌]; details: solid tumor; cited from earlier work

SMILES | A value (490nm) ([1]; 0.01l/ml) | inhibition rate ([1]; 0.01l/ml) [%] | A value (490nm) ([1]; 0.1μl/ml) | inhibition rate ([1]; 0.1μl/ml) [%] | A value (490nm) ([1]; 1μl/ml) | inhibition rate ([1]; 1μl/ml) [%] | antitumor effect [2] | antitumor spectrum [2] | dose dependence of antitumor effect [2] | life prolongation rate [3] | requirement for efficacy in vivo [4] | inhibition of tumor growth [5] | inhibition of tumor growth (HCA solid type [HCA实体型]) | solubility in nonpolar solvents ([6]; chloroform and other nonpolar solvents) | solubility in water ([6]; water) | life prolongation rate [7] | elimination [8] | half-life [8] | anticancer effect in vitro [9] | inhibition of tumor growth [10]
COc1cccc2c1C(=O)c1c(O)c3c(c(O)c1C2=O)C[C@@](O)(C(=O)CO)C[C@@H]3O[C@H]1C[C@H](N)[C@H](O)[C@H](C)O1 [阿霉素] | 0.452 ± 0.057 | 59.46 | 0.406 ± 0.075 | 73.31 | 0.370 ± 0.087 | 81.21 |  |  |  |  |  |  |  |  |  |  |  |  |  | 
C=C1C(=O)[C@@]23[C@H](O)C[C@@H]4C(C)(C)C(=O)CC[C@@]4(C)[C@@H]2CC[C@@H]1[C@H]3O [蓝萼甲素] |  |  |  |  |  |  | 较强的抗肿瘤作用 | 抗瘤谱较广 | 呈剂量依赖性 | 明显增加 | 需大剂量长时间用药才能产生药效 | 能抑制 | 能抑制 | 易溶于氯仿等非极性溶剂 | 在水中不溶 | 明显增加 | 药物在体内消除很快 | 半衰期短 | 明显的抗癌作用 | 能抑制
